This note sets out measurements from US12590322B2, “Devices and methods for mitochondria replacement and for generating cellular therapeutics” (NanoCav, LLC, priority 2018, dated 2026).

Data set [1] relates to Adult and neonatal human dermal fibroblast (HDF) cells. The data set is described as follows: mtDNA depletion by ddC in human dermal fibroblasts. It counts as cell-based. The conditions noted are these: 5 μM ddC, after sixteen days. From the text:
FIGS. 12A-12C show generation of mtDNA depleted human dermal fibroblasts cells. […] 143 Rho Null (lacking mtDNA) and a control are also shown. […] GAPDH expression, used as a reference gene, was also shown in adult and neonatal human dermal fibroblast (HDF) cells. FIG. 12B is a table showing depletion of mtDNA in HDF adult and HDF neonatal cells at days sixteen and thirty. FIG. 12C is a line plot showing the data of FIG. 12B.
(§1) A 1000× stock of 2′,3′-dideoxycytidine (ddC, Sigma, Cat. #D5782) was prepared in water. BJ, ADF, and NDF cells cultured in complete media with 50 µg/ml uridine were added ddC to an appropriate final concentration. Cells were passaged every 3-4 d and fresh ddC was added over the course of 3 weeks. After ddC treatment, total DNA was extracted (Qiagen, Cat. #69504) and mtDNA quantified using SYBR Select Master Mix for CFX (Life Technologies, Cat. #4472942). mtDNA-encoded ND1 was probed with the following primers: forward: […] (SEQ ID NO: 1); reverse: […] (SEQ ID NO: 2). mtDNA levels were normalized to nuclear-encoded GAPDH using the following primers: forward: […] (SEQ ID NO: 3); reverse: […] (SEQ ID NO: 4). qPCR was run on a BioRad CFX Thermal Cycler using the following protocol: 1) 50° C. for 2 min, 2) 95° C. for 2 min, 3) 40 cycles-95° C. for 10 s and 60° C. for 45 s. Samples were compared by calculating ΔΔCT and fold differences.

The test system of data set [2] is BJ cells. The data set is described as follows: mtDNA depletion by ddC in BJ primary fibroblasts, qPCR verification. Conditions: for mtDNA levels, % of initial untreated levels: 2.5 μM or 5 μM ddC. Format: cell-based, human. How it is done:
FIGS. 11A-11B show generation of mtDNA depleted primary fibroblast lines in BJ cells. FIG. 11A is a bar chart showing that a minimum concentration of 2.5 μM of 2′,3′ dideoxycytidine (ddC), a reverse transcriptase inhibitor, was required to deplete mtDNA to below 5% of the original level, three weeks from initiation of treatment. […] FIG. 11B is a line plot showing the information of FIG. 11A.
as §1
(In general: In qPCR the cycle at which signal appears reflects the starting amount.)

Data set [3] concerns BJs. The data set can be described thus: Mutation signature comparison of ddC-treated BJs vs BJ parent, 30X whole genome sequencing. The conditions noted are these: for # SNVs / % of Total: 5 μM ddC treated BJs vs BJ parent. Format: cell-based, human. The protocol:
A comparison of mutation signatures between 5 μM-ddC treated BJs and the BJ parent with 30× whole genome sequencing.

Where [4] appears, read: 5 μM ddC-treated BJs vs. BJ parent.
Where [5] appears, read: ddC-treated cells, whole genome sequencing.

Take `Nc1ccn([C@H]2CC[C@@H](CO)O2)c(=O)n1` [ddC, 2′,3′-dideoxycytidine]: the mtDNA depletion entry in data set [1] was “mtDNA depletion”. Besides, the “mtDNA levels, % of initial untreated levels” value is given as “below 0.5%” in data set [2] (three weeks from initiation of treatment) and “below 2%” in data set [2] (two weeks). In data set [2] (BJ cells, three weeks from initiation of treatment), the “minimum concentration required to deplete mtDNA to below 5% of the original level” value amounted to 2.5 µM. Moreover, the Mutation rate in data set [3] (setting [4]) is reported as 0.6/MB. In data set [3] (setting [4]), the Non-synonymous mutations came to 26. Besides, the “# SNVs” value in data set [3] (Signature 5) is listed as 2,230; in data set [3] (Signature 8), 873; in data set [3] (Signature 9) it was 854; in data set [3] (Signature 16), 200; in data set [3] (Signature 18), 471. Also, the “% of Total” value in data set [3] (Signature 5) came to 42.0%; in data set [3] (Signature 8) it was 16.0%; in data set [3] (Signature 9), 16.0%; in data set [3] (Signature 16), 4.0%; in data set [3] (Signature 18), 9.0%. Also, in data set [3] (setting [5]), the “abundance of non-synonymous mutations” value is “low abundance”. Also, the “changes in DNA copy number” value in data set [3] (setting [5]) is “no changes in DNA copy number”. Also, the chromosomal breaks result in data set [3] (setting [5]) is listed as “no chromosomal breaks”.
